Experimental data as given in US7105538B2, “2-pyrrolidin-2-yl-[1,3,4]-oxadiazole compounds and their use as anti-depressants” (Gruenenthal GmbH, priority 2002, dated 2006).

What follows are compounds tested on 5HT uptake (serotonin re-uptake), synaptosomes from rat brain (assay: Inhibition of serotonin re-uptake (5HT-uptake inhibition) in rat brain synaptosomes). Conditions: synaptosomes (P2 fraction) from medulla+pons region of male rats' brains; test concentration not given.
Format: biochemical
Experimental: Tests of Inhibition of Serotonin Re-Uptake (5HT-Uptake Inhibition)
To be able to carry out these studies in vitro, synaptosomes were freshly isolated from rat brain areas. What is known as a “P2” fraction was used in each case. This was prepared in accordance with Gray and Whittaker's directions (E. G. Gray and V. P. Whittaker (1962) J. Anat. 76, 79–88). These vesicular particles were isolated from the medulla+pons region of male rats' brains for 5HT uptake. A detailed description of the method may be found in the literature (M. Ch. Frink, H.-H. Hennies, W. Englberger, M. Haurand and B. Wilffert (1996) Arzneim. -Forsch./Drug Res. 46 (III), 11,1029–1036). The 5HT-uptake inhibition of the following compounds was tested by way of example: […]

Compound	5HT uptake, % inhibition
CCOC(=O)CCC(=O)N1CCCC1c1nnc(-c2ccncc2)o1 (centres unmarked) [Example 4, 4-oxo-4-[2-(5-pyridin-4-yl-[1,3,4]oxadiazol-2-yl)-pyrrolidin-1-yl]-butyric acid ethyl ester]	72%
COc1ccc(C(=O)N2CCCC2c2nnc(-c3ccncc3)o2)c(OC)c1 (centres unmarked) [Example 5, (2,4-dimethoxy-phenyl)-[2-(5-pyridin-4-yl-[1,3,4]oxadiazol-2-yl)-pyrrolidin-1-yl]methanone]	81%
O=C(c1cccnc1Cl)N1CCCC1c1nnc(-c2ccncc2)o1 (centres unmarked) [Example 6, (2-chloro-pyridin-3-yl)-[2-(5-pyridin-4-yl-[1,3,4]oxadiazol-2-yl)pyrrolidin-1-yl]-methanone]	84%
CC1(C)C2CCC1(CS(=O)(=O)N1CCCC1c1nnc(-c3ccncc3)o1)C(=O)C2 (centres unmarked) [Example 7, 7,7-dimethyl-1-[2-(5-pyridin-4-yl-[1,3,4]oxadiazol-2-yl)-pyrrolidin-1-sulfonylmethyl]-bicyclo[2.2.1]heptan-2-one]	64%
CN(C)c1cccc(C(=O)N2CCCC2c2nnc(-c3cccnc3)o2)c1 (centres unmarked) [Example 12, (3-dimethyamino-phenyl)-[2-(5-pyridin-3-yl-[1,3,4]oxadiazol-2-yl)-pyrrolidin-1-yl]-methanone]	54%
COc1ccc(CC(=O)N2CCCC2c2nnc(-c3ccncc3)o2)cc1OC (centres unmarked) [Example 13, 2-(3,4-dimethoxy-phenyl)-1-[2-(5-pyridin-4-yl-[1,3,4]oxadiazol-2-yl)-pyrrolidin-1-yl]-ethanone]	67%
O=C(c1ccc(Cl)cc1)N1CCCC1c1nnc(-c2ccc(-c3ccccc3)cc2)o1 (centres unmarked) [Example 14, [2-(5-biphenyl-4-yl-[1,3,4]oxadiazol-2-yl)-pyrrolidin-1-yl]-(4-chloro-phenyl)-methanone]	69%
Cc1ccc(CS(=O)(=O)NC(Cc2ccccc2)C(=O)N2CCCC2c2nnc(-c3ccncc3)o2)cc1 (centres unmarked) [Example 21, N-{1-benzyl-2-oxo-2-[2-(5-pyridin-4-yl-[1,3,4]oxadiazol-2-yl)-pyrrolidin-1-yl]-ethyl}-4-methyl-benzylsulfonamide]	53%
O=S(=O)(c1cc(Cl)c(Cl)s1)N1CCCC1c1nnc(-c2ccncc2)o1 (centres unmarked) [Example 22, 4-{5-[1-(4,5-dichloro-thiophene-2-sulfonyl)-pyrrolidin-2-yl]-[1,3,4]oxadiazol-2-yl}-pyridine]	60%
COc1ccc(OC)c(CS(=O)(=O)N2CCCC2c2nnc(-c3cccnc3)o2)c1 (centres unmarked) [Example 30, 3-{5-[1-(2,5-dimethoxyl-benzylsulfonyl)-pyrrolidin-2-yl]-[1,3,4]oxadiazol-2-yl}-pyridine]	60%
Cc1cc(C)c(CS(=O)(=O)N2CCCC2c2nnc(-c3ccccc3F)o2)c(C)c1 (centres unmarked) [Example 61, 2-(2-fluoro-phenyl)-5-[1-(2,4,6-trimethyl-benzylsulfonyl)-pyrrolidin-2-yl]-[1,3,4]oxadiazole]	50%
O=C(COc1ccc(Cl)cc1)N1CCCC1c1nnc(-c2ccncc2)o1 (centres unmarked) [Example 67, 2-(4-chloro-phenoxy)-1-[2-(5-pyridin-4-yl-[1,3,4]oxadiazol-2-yl)-pyrrolidin-1-yl]-ethanone]	50%
O=C(C=Cc1ccccc1)N1CCCC1c1nnc(-c2ccccc2)o1 (centres unmarked) [Example 84, 3-phenyl-1-[2-(5-phenyl-[1,3,4]oxadiazol-2-yl)-pyrrolidin-1-yl]-propenone]	61%
Cc1nn(-c2ccccc2)nc1C(=O)N1CCCC1c1nnc(-c2ccncc2)o1 (centres unmarked) [Example 85, (5-methyl-2-phenyl-[1,2.3]triazol-4-yl)-[2-(5-pyridin-4-yl-[1,3,4]oxadiazol-2-yl)-pyrrolidin-1-yl]-methanone]	61%
O=S(=O)(Cc1ccc(F)cc1F)N1CCCC1c1nnc(-c2cccnc2)o1 (centres unmarked) [Example 86, 3-{5-[1-(2,4-difluoro-benzylsulfonyl)-pyrrolidin-2-yl]-[1,3,4]oxadiazol-2-yl}-pyridine]	73%
COc1cccc(-c2nnc(C3CCCN3C(=O)c3ccc(Br)cc3)o2)c1 (centres unmarked) [Example 92, (4-bromo-phenyl)-{2-[5-(3-methoxy-phenyl)-[1,3,4]oxadiazol-2-yl]-pyrrolidin-1-yl}-methanone]	58%
COc1cccc(-c2nnc(C3CCCN3C(=O)c3ccnc(Cl)c3)o2)c1 (centres unmarked) [Example 94, (2-chloro-pyridin-4-yl)-{2-[5-(3-methoxy-phenyl)-[1,3,4]oxadiazol-2-yl]-pyrrolidin-1-yl}-methanone]	50%
O=C(c1c(F)cccc1F)N1CCCC1c1nnc(-c2ccncc2)o1 (centres unmarked) [Example 101, (2,6-difluoro-phenyl)-[2-(5-pyridin-4-yl-[1,3,4]oxadiazol-2-yl)-pyrrolidin-1-yl]-methanone]	54%
CCOc1ccc(C(=O)N2CCCC2c2nnc(-c3ccccc3)o2)cc1 (centres unmarked) [Example 109, (4-ethoxy-phenyl)-[2-(5-phenyl-[1,3,4]oxadiazol-2-yl)-pyrrolidin-1-yl]-methanone]	54%
O=S(=O)(Cc1ccc(OC(F)(F)F)cc1)N1CCCC1c1nnc(-c2cccnc2)o1 (centres unmarked) [Example 134, 3-{5-[1-(4-trifluoromethoxy-benzylsulfonyl)-pyrrolidin-2-yl]-[1,3,4]oxadiazol-2-yl}-pyridine]	55%
O=C(c1cc(C(F)(F)F)ccc1C(F)(F)F)N1CCCC1c1nnc(-c2ccc(Cl)cc2)o1 (centres unmarked) [Example 164, (2,5-bis-trifluoromethyl-phenyl)-{2-[5-(4-chloro-phenyl)-[1,3,4]oxadiazol-2-yl]-pyrrolidin-1-yl}-methanone]	80%
O=C(c1cc(C(F)(F)F)ccc1C(F)(F)F)N1CCCC1c1nnc(-c2cccs2)o1 (centres unmarked) [Example 165, (2,5-bis-trifluoromethyl-phenyl)-[2-(5-thiophen-2-yl-[1,3,4]oxadiazol-2-yl)-pyrrolidin-1-yl]-methanone]	76%
CCCc1c(C(=O)N2CCCC2c2nnc(-c3cccnc3)o2)cnn1-c1ccccc1 (centres unmarked) [Example 166, (1-phenyl-5-propyl-1H-pyrazol-4-yl)-[2-(5-pyridin-3-yl-[1,3,4]oxadiazol-2-yl)-pyrrolidin-1-yl]-methanone]	78%
COc1cccc(-c2nnc(C3CCCN3C(=O)c3cccc(F)c3F)o2)c1 (centres unmarked) [Example 173, (2,3-difluoro-phenyl)-{2-[5-(3-methoxy-phenyl)-[1,3,4]oxadiazol-2-yl]-pyrrolidin-1-yl}-methanone]	62%
Cc1nc(C(F)(F)F)ccc1C(=O)N1CCCC1c1nnc(-c2ccccc2)o1 (centres unmarked) [Example 174, (2-methyl-6-trifluoromethyl-pyridin-3-yl)-[2-(5-phenyl-[1,3,4]oxadiazol-2-yl)-pyrrolidin-1-yl]-methanone]	61%
O=C(c1ccc(SC(F)(F)F)cc1)N1CCCC1c1nnc(-c2ccccc2)o1 (centres unmarked) [Example 181, [2-(5-phenyl-[1,3,4]oxadiazol-2-yl)-pyrrolidin-1-yl]-(4-trifluoromethylsulfanyl-phenyl)-methanone]	62%
O=C(N1CCc2ccc(S(=O)(=O)N3CCCC3c3nnc(-c4ccncc4)o3)cc2C1)C(F)(F)F (centres unmarked) [Example 182, 2,2,2-trifluoro-1-{7-[2-(5-pyridin-4-yl-[1,3,4]oxadiazol-2-yl)-pyrrolidin-1-sulfonyl]-3,4-dihydro-1H-isoquinolin-2-yl}-ethanone]	52%

These compounds were tested on phenylquinone-induced writhing in mice (assay: Analgesic efficacy by phenylquinone-induced writhing in mice). Conditions: male NMRI mice; 10 mg/kg i.v., 10 min before phenylquinone i.p.; writhing counted 5-20 min after phenylquinone.
Format: in vivo
Experimental: Investigation of Analgesic Efficacy by Testing Writhing in Mice
The investigation into analgesic efficacy was performed by phenylquinone-induced writhing in mice (modified after: I. C. Hendershot and J. Forsaith (1959), J. Pharmacol. Exp. Ther. 125, 237–240). Male NMRI mice weighing from 25 to 30 g were used for this purpose. 10 minutes after intravenous administration of the compounds tested, groups of 10 animals per substance dose received 0.3 ml/mouse of a 0.02% aqueous solution of phenylquinone (phenylbenzoquinone, Sigma, Deisenhofen; solution prepared by adding 5% of ethanol and stored in a water bath at 45° C.) administered intraperitoneally. The animals were placed individually into observation cages. A pushbutton counter was used to record the number of pain-induced stretching movements (writhing reactions=straightening of the torso with stretching of the rear extremities) for 5–20 minutes after phenylquinone administration. The control was provided by animals which received only physiological common salt solution. All substances were tested at the standard dosage of 10 mg/kg. The percentage inhibition (% inhibition) of the writhing reactions by a substance was calculated according to the following formula: […]

Compound	% inhibition of writhing reaction by intravenous administration of 10 mg/kg
O=C(CCC1CCCC1)N1CCCC1c1nnc(-c2cccc(Cl)c2)o1 (centres unmarked) [Example 247, 1-{2-[5-(3-chloro-phenyl)-[1,3,4]oxadiazol-2-yl]-pyrrolidin-1-yl}-3-cyclopentyl-propan-1-one]	33%
CCCCC(=O)N1CCCC1c1nnc(-c2cccc(Cl)c2)o1 (centres unmarked) [Example 248, 1-{2-[5-(3-chloro-phenyl)-[1,3,4]oxadiazol-2-yl]-pyrrolidin-1-yl}-pentan-1-one]	45%
